Laboratory results reported in ChEMBL document CHEMBL3885861, “Open TG-GATES”.

Species on record: Rattus norvegicus
Test: Open TG-GATES - Regimen: Daily Repeat
Type: toxicity, organism-based, Sprague-Dawley
Set-up: regimen Daily Repeat, gender Male, age 6 weeks
Settings: in vivo, po, 200 mg/kg, route gavage, dose level High; for APTT / Bas / Eos / Fbg / Hb / Ht / Lym / MCH / MCHC / MCV / Mono / Neu / PT / Plat / RBC / Ret / WBC: tissue Blood; for KIDNEY_L / KIDNEY_R / KIDNEY_TOTAL: tissue Kidney; for LIVER: tissue Liver; for A/G / ALP / ALT / AST / BUN / CRE / Ca / Cl / DBIL / GLC / IP / K / LDH / Na / PL / RALB / TBIL / TC / TG / TP / gamma-GTP: tissue Plasma

## CC(CN1c2ccccc2Sc2ccccc21)N(C)C (configuration not stated) [PROMETHAZINE]
72 h, time 3 day
  TERMINAL_BW: 194.8 g
  APTT: 23.9 s
  Bas: 0%
  Eos: 0.8%
  Fbg: 333.2 mg/dL
  Hb: 15 g/dL
  Ht: 44.4%
  Lym: 74.6%
  MCH: 20.7 pg
  MCHC: 33.7%
  MCV: 61.6 fL
  Mono: 2.8%
  Neu: 21%
  PT: 16.6 s
  Plat: 130.8 x10_4/uL
  RBC: 722.2 x10_4/ul
  Ret: 4.2%
  WBC: 73 x10_2/uL
  KIDNEY_L: 0.9 g
  KIDNEY_R: 0.9 g
  KIDNEY_TOTAL: 1.8 g
  LIVER: 10 g
  A/G: 1.3
  ALP: 1369.6 IU/L
  ALT: 46.8 IU/L
  AST: 69.2 IU/L
  BUN: 14.8 mg/dL
  CRE: 0.2 mg/dL
  Ca: 10.2 mg/dL
  Cl: 107.2 meq/L
  DBIL: 0.08 mg/dL
  GLC: 174.6 mg/dL
  IP: 8.3 mg/dL
  K: 4.3 meq/L
  LDH: 204.6 IU/L
  Na: 142.4 meq/L
  PL: 159.4 mg/dL
  RALB: 3.2 g/dL
  TBIL: 0.024 mg/dL
  TC: 98.6 mg/dL
  TG: 75.6 mg/dL
  TP: 5.8 g/dL
  gamma-GTP: 1.4 IU/L
[…], time 7 day
  TERMINAL_BW: 231 g
  APTT: 23.3 s
  Bas: 0%
  Eos: 1%
  Fbg: 306.2 mg/dL
  Hb: 14.1 g/dL
  Ht: 42.2%
  Lym: 76.4%
  MCH: 19.7 pg
  MCHC: 33.4%
  MCV: 59.1 fL
  Mono: 3.2%
  Neu: 18.6%
  PT: 15.9 s
  Plat: 115.2 x10_4/uL
  RBC: 714.2 x10_4/ul
  Ret: 3.9%
  WBC: 129.8 x10_2/uL
  KIDNEY_L: 1 g
  KIDNEY_R: 1.1 g
  KIDNEY_TOTAL: 2.1 g
  LIVER: 14.7 g
  A/G: 1.1
  ALP: 1435.2 IU/L
  ALT: 56.4 IU/L
  AST: 75.4 IU/L
  BUN: 19.6 mg/dL
  CRE: 0.2 mg/dL
  Ca: 10.9 mg/dL
  Cl: 104.8 meq/L
  DBIL: 0.004 mg/dL
  GLC: 179.4 mg/dL
  IP: 7.8 mg/dL
  K: 4.5 meq/L
  LDH: 167.8 IU/L
  Na: 142 meq/L
  PL: 170.6 mg/dL
  RALB: 3 g/dL
  TBIL: 0.008 mg/dL
  TC: 84.8 mg/dL
  TG: 127 mg/dL
  TP: 5.7 g/dL
  gamma-GTP: 2.8 IU/L
[…], time 14 day
  TERMINAL_BW: 258.5 g
  APTT: 22.6 s
  Bas: 0%
  Eos: 1%
  Fbg: 369.4 mg/dL
  Hb: 15 g/dL
  Ht: 43.8%
  Lym: 70.4%
  MCH: 19.7 pg
  MCHC: 34.2%
  MCV: 57.4 fL
  Mono: 3.2%
  Neu: 24.6%
  PT: 16.1 s
  Plat: 120.6 x10_4/uL
  RBC: 763.2 x10_4/ul
  Ret: 4%
  WBC: 105 x10_2/uL
  KIDNEY_L: 1.1 g
  KIDNEY_R: 1.1 g
  KIDNEY_TOTAL: 2.2 g
  LIVER: 15.1 g
  A/G: 1
  ALP: 1417 IU/L
  ALT: 53.6 IU/L
  AST: 73.8 IU/L
  BUN: 20.6 mg/dL
  CRE: 0.2 mg/dL
  Ca: 11 mg/dL
  Cl: 103.2 meq/L
  DBIL: 0.014 mg/dL
  GLC: 184.6 mg/dL
  IP: 8 mg/dL
  K: 4.2 meq/L
  LDH: 249 IU/L
  Na: 143.4 meq/L
  PL: 182.4 mg/dL
  RALB: 3.1 g/dL
  TBIL: 0.018 mg/dL
  TC: 99 mg/dL
  TG: 117.2 mg/dL
  TP: 6.1 g/dL
  gamma-GTP: 3.4 IU/L
[…], time 28 day
  TERMINAL_BW: 339.7 g
  APTT: 23.6 s
  Bas: 0%
  Eos: 1%
  Fbg: 316.4 mg/dL
  Hb: 15.3 g/dL
  Ht: 43.5%
  Lym: 71.6%
  MCH: 19.3 pg
  MCHC: 35.1%
  MCV: 55.1 fL
  Mono: 3%
  Neu: 23.4%
  PT: 16.4 s
  Plat: 108 x10_4/uL
  RBC: 791.6 x10_4/ul
  Ret: 3.3%
  WBC: 135.4 x10_2/uL
  KIDNEY_L: 1.3 g
  KIDNEY_R: 1.3 g
  KIDNEY_TOTAL: 2.6 g
  LIVER: 21.1 g
  A/G: 1
  ALP: 1191.4 IU/L
  ALT: 54.6 IU/L
  AST: 66 IU/L
  BUN: 21.2 mg/dL
  CRE: 0.2 mg/dL
  Ca: 10.8 mg/dL
  Cl: 104.2 meq/L
  DBIL: 0.008 mg/dL
  GLC: 175.2 mg/dL
  IP: 6.8 mg/dL
  K: 4.1 meq/L
  LDH: 146 IU/L
  Na: 142.8 meq/L
  PL: 211.4 mg/dL
  RALB: 3.2 g/dL
  TBIL: 0.02 mg/dL
  TC: 116.8 mg/dL
  TG: 136.6 mg/dL
  TP: 6.3 g/dL
  gamma-GTP: 4.2 IU/L
